{"source": "patent US20220372014A1", "about": "“NEUROPROTECTIVE COMPOUNDS AND METHODS OF USE THEREOF” (The Johns Hopkins University, priority 2019, published 2022)", "key": {"SH-SY5Y cells [1]": {"system": "SH-SY5Y cells", "test": "MNNG-induced parthanatic cell death in SH-SY5Y cells (Alamar blue cell viability)", "assay_type": "cell-based", "conditions": "50 μM MNNG for 15 min, viability after 24 h", "from_the_text": "We developed an assay to screen for PAAN/MIF nuclease inhibitors. Single-stranded PAAN/MIF nuclease DNA substrate (FIG. 10A) was amine modified on the 5′ end and immobilized on a plate. Hybridization with a biotin-labeled complementary oligonucleotide followed by addition of streptavidin conjugated horseradish peroxidase enzyme (HRP) leads to retention of HRP on the surface within each well in the presence of intact PAAN/MIF nuclease DNA substrate, which can be quantitatively detected through colorimetric change at 450 nm using the HRP substrate 3,3′,5,5′-tetramethylbenzidine (TMB). In the presence of WT PAAN/MIF, there is reduced signal, indicative of cleavage of the PAAN/MIF nuclease substrate, while the signal is not attenuated without recombinant PAAN/MIF (FIGS. 1 and 10B). […] Thus, the rapafucin library containing 45,000 macrocyclic compounds in 3,000 pools of 15 compounds was screened using this assay. […] Several pools were identified that inhibit PAAN/MIF nuclease activity from the primary screen (FIG. 4A). […] Nine pools of compounds were identified that both inhibit PAAN/MIF cleavage of the substrate and protect against MNNG-induced parthanatic cell death by greater than 70% (FIG. 10D). […] Next, the 90 individual compounds in the 6 pools were synthesized and further assessed for inhibition of PAAN/MIF nuclease activity and MNNG-induced parthanatic cell death. Among them 12 compounds (compounds 16-18, 26-28, 41, 56, 66, 67, 76, and 77) were identified that block MIF nuclease activity and MNNG-induced parthanatic cell death by greater than 60% (FIG. 10F). Dose dependence (0.1 to 1.0 μM) were assessed for the 12 compounds against MNNG-induced parthanatic cell death (FIG. 11A and Table 2) and inhibition of PAAN MIF nuclease activity against the RF (FIG. 111B) and PS30 substrates (FIG. 11C).\nCell culture, transfection, primary neuronal culture and treatment. SH-SY5Y cells (ATCC) were cultured in DMEM containing 10% fetal bovine serum and penicillin/streptomycin at 37° C. under 5% C02. The cells were transfected using PolyFect reagent (Qiagen). Parthanatos was induced by the treatment of 50 μM MNNG for 15 min in SH-SY5Y cells. ABT-888 or PAAN/MIF inhibitors were pretreated with indicated concentration 1 h before MNNG treatment and cell death were assessed after 24 h. Primary cortical neurons from WT, PAAN/MIF KO, E22Q KI or P1G KI embryos were prepared as previously described See Kam et al. (2018) Science 362:eaat8407. Briefly, the cortex was dissected and cultured at embryonic day 16 in neurobasal media supplemented with B-27, 0.5 mM L-glutamine, penicillin and streptomycin (Invitrogen). Primary neurons were infected with AAV2-control, AAV2-PAAN/MIF WT, AAV2-PAAN/MIF E22Q, AAV2-PAAN/MIF E22A or AAV2-MIF P1G (ViGene Biosciences) at days in vitro (DIV) 4-5. ABT-888 or PAAN/MIF inhibitors were applied to neurons 1 h before α-syn PFF treatment. The neuron growth medium was replaced with fresh medium alone or including inhibitors every 3-4 days. α-syn PFF was added at DIV 7 and further incubated for indicated times followed by the cell death assay or biochemical experiments.\nCell death and viability assessment. Primary cultured cortical neurons were treated with 5 μg/ml of α-syn PFF for 14 days and cell death was determined by staining of all nuclei with 7 μM Hoechst 33342 and dead cell nuclei with 2 μM propidium iodide (PI) (Invitrogen). The numbers of total and dead cells were counted with the Axiovision 4.6 software (Carl Zeiss). Cell viability was determined by fluorescence at an excitation wavelength 570 nm and an emission wavelength 585 nm using Alamar Blue (Invitrogen). […]"}, "cortical neurons": {"system": "cortical neurons", "test": "Nuclear translocation of AIF and PAAN/MIF after α-syn PFF treatment in cortical neurons (subcellular fractionation)", "assay_type": "cell-based, mouse", "conditions": "primary neuronal cultures", "from_the_text": "FIGS. 3A-3H show PAAN/MIF nuclease activity is required for prevention of α-syn PFF-induced neurotoxicity in neurons. […] See Donawho, et al. (2007) Clin. Cancer Res. 13:2728-37. Intensity of PAAN/MIF and AIF signal is shown in the graph. **P<0.005 versus the PBS control group in the nuclear (N) fraction, two-way ANOVA followed by Tukey's post hoc test. […] Intensity of AIF-bound PAAN/MIF is shown in the graph. *P<0.05, student's t-test. […] Scale bars, 20 μm. The white color in the merged images indicates the overlay of AIF, PAAN/MIF and Hoechst dye in the nucleus. The percentage of cells with nuclear localization of PAAN/MIF and AIF is shown in the graph. ***P<0.0005, student's t-test. […] Intensity of noncleaved genomic DNA is shown in the graph. ***P<0.0005, two-way ANOVA. […] Scale bar, 20 μm. […] Bars represent mean±s.e.m. ***P<0.0005, two-way ANOVA followed by Tukey's post hoc test (n=3). […] Bars represent mean±s.e.m. ***P<0.0005, two-way ANOVA followed by Tukey's post hoc test (n=5). […]\nSubcellular fractionation. Subcellular fraction and quantification of relative levels of AIF and PAAN/MIF were performed as previously described. […] Each fractions were monitored by PARP-1 antibody (BD) for the nuclear fraction and HSP60 antibody (cell signaling) for the postnuclear fraction."}, "HT 22 cells": {"system": "HT 22 cells", "test": "TNF-α and z-VAD-induced necroptosis, Alamar blue", "assay_type": "cell-based", "conditions": "1 ng/ml TNF-α with 50 μM z-VAD", "protocol": "(§1) Graphs represent mean±s.e.m. ***P<0.0005, two-way ANOVA followed by Tukey's post hoc test (n=3). A PARP inhibitor, ABT-888 is used for the positive control. FIGS. 12B and 12C show in vitro oxidoreductase and tautomerase activity of MIF/PAAN with compound 41, 56, 76, or 77. FIGS. 12D and 12E show Alamar blue cell viability assay from SH-SY5Y cells pre-incubated with compound 41, 56, 76, or 77 in response to 0.5 μM staurosporine (STS) or from HT 22 cells incubated with 1 ng/ml of TNF-α with 50 μM z-VAD. A pan caspase inhibitor, z-VAD or necrostatin (Nec-1) is used for the positive control and PARP inhibitor, ABT-888 is used for negative control. Bars represent mean±s.e.m. ***P<0.0005, two-way ANOVA followed by Tukey's post hoc test (n=3). […] Bars represent mean±s.e.m. **P<0.005, ***P<0.0005, two-way ANOVA followed by Tukey's post hoc test (n=3).\n(§2) FIGS. 14A-14G show the characterization of compound 121. […] Bars represent means±s.e.m. ***P<0.0005, two-way ANOVA followed by Tukey's post hoc test (n=4). […] Bars represent mean±s.e.m. ***P<0.0005, two-way ANOVA followed by Tukey's post hoc test (n=4). […] Bars represent means±s.e.m. **P<0.005, ***P<0.0005, one-way ANOVA followed by Tukey's post hoc test (n=3). […] Bar represent mean±s.e.m. ***P<0.0005, one-way ANOVA followed by Tukey's post hoc test (n=3). […] Quantification of inhibition of PARP-1 activity by compound 56, compound 121 and ABT-888 is shown. Graphs represent mean±s.e.m. ***P<0.0005, two-way ANOVA followed by Tukey's post hoc test (n=3). FIGS. 14F and 14G show Alamar blue cell viability assay from SH-SY5Y cells pre-incubated with either compound 56 or 121 in response to (14F) 0.5 μM staurosporine (STS) or (14G) from HT 22 cells incubated with 1 ng/ml of TNF-α with 50 μM z-VAD. Bars represent mean±s.e.m. ***P<0.0005, two-way ANOVA followed by Tukey's post hoc test (n=5).\n(§3) Cell death and viability assessment. Primary cultured cortical neurons were treated with 5 μg/ml of α-syn PFF for 14 days and cell death was determined by staining of all nuclei with 7 μM Hoechst 33342 and dead cell nuclei with 2 μM propidium iodide (PI) (Invitrogen). The numbers of total and dead cells were counted with the Axiovision 4.6 software (Carl Zeiss). Cell viability was determined by fluorescence at an excitation wavelength 570 nm and an emission wavelength 585 nm using Alamar Blue (Invitrogen)."}, "SH-SY5Y cells [2]": {"system": "SH-SY5Y cells", "test": "Staurosporine (STS)-induced apoptotic cell death, Alamar blue", "assay_type": "cell-based", "conditions": "0.5 μM STS", "protocol": "as §1, §2, §3"}, "MIF": {"molecular_target": "T1, MIF (Homo sapiens, UniProt P14174)", "T1 sequence (P14174 1-115)": "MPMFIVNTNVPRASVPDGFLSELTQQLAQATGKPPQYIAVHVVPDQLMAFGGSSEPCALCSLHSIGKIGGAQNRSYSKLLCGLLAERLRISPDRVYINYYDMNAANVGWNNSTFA", "test": "Nuclease assay of Example 3 (MIF inhibitory activity, Table 4)", "assay_type": "biochemical", "set-up": "(%) inhibition of MIF nuclease activity: concentration or dose not given beside the values", "conditions": "nuclease assay of Example 3", "summary_of_the_method": "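Human genomic DNA (200 ng), pcDNA (200 ng) or PS^30-type substrates (1 μM) were incubated with MIF (0.25-8 μM final) in 10 mM Tris-HCl pH 7.0, 10 mM MgCl2, 1 mM DTT at 37 °C for 1 h (pcDNA, small substrates) or 4 h (genomic DNA). Cleavage was assessed by agarose or PAGE electrophoresis with EtBr staining and chemiluminescent detection of biotin-labelled DNA.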"}, "[3]": {"system": "HeLa cells or neuronal cells", "test": "Cell death assay of Example 3 (MNNG, alamarBlue; protection against parthanatos, Table 4)", "assay_type": "cell-based", "conditions": "1 μM test compound, MNNG-induced cell death, alamarBlue", "summary_of_the_method": "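HeLa or neuronal cells (1×10^4/well) were pretreated 1 h at 37° C with 1 μM compound, exposed to MNNG for 15 min, washed, then re-incubated 18 h with 1 μM compound. Viability was read by alamarBlue fluorescence (ex 560/em 590 nm). Cell death was expressed relative to control wells.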"}}, "note": "Where a SMILES comes first, the peptide text is derived from it. The star is where a group is joined. Cbz = O=C(OCc1ccccc1)*; CH2F = FC*", "data": [{"smiles": "C=CC[C@@H]1/C=C(\\C)C[C@H](C)C[C@H](OC)[C@H]2O[C@@](O)(C(=O)C(=O)N3CCCC[C@H]3C(=O)O[C@H](/C(C)=C/[C@@H]3CC[C@@H](O)[C@H](OC)C3)[C@H](C)[C@@H](O)CC1=O)[C@H](C)C[C@@H]2OC", "note": "[FK506, reference compound]", "values": [{"measurement": "inhibition of MNNG-induced parthanatic cell death", "setting": "SH-SY5Y cells [1]", "result": "failed to inhibit"}]}, {"smiles": "CO[C@H]1C[C@@H]2CC[C@@H](C)[C@@](O)(O2)C(=O)C(=O)N2CCCC[C@H]2C(=O)O[C@H]([C@H](C)C[C@@H]2CC[C@@H](O)[C@H](OC)C2)CC(=O)[C@H](C)/C=C(\\C)[C@@H](O)[C@@H](OC)C(=O)[C@H](C)C[C@H](C)/C=C/C=C/C=C/1C", "note": "[rapamycin, reference compound]", "values": [{"measurement": "inhibition of MNNG-induced parthanatic cell death", "setting": "SH-SY5Y cells [1]", "result": "failed to inhibit"}]}, {"smiles": "C[C@]1(c2nc3c(C(N)=O)cccc3[nH]2)CCCN1", "note": "[ABT-888, reference compound]", "values": [{"measurement": "α-syn PFF-induced nuclear translocation of PAAN/MIF and AIF", "setting": "cortical neurons", "result": "attenuated"}, {"measurement": "TNFα and Z-VAD-induced necroptosis", "setting": "HT 22 cells", "result": "not prevented"}, {"measurement": "staurosporine (STS)-induced apoptotic cell death", "setting": "SH-SY5Y cells [2]", "result": "do not inhibit"}]}, {"smiles": "CN1C(=O)C(Cc2c[nH]c3ccccc23)NC1=S", "note": "(stereo not shown) [Nec-1, necrostatin, reference compound]", "values": [{"measurement": "TNFα and Z-VAD-induced necroptosis", "setting": "HT 22 cells", "result": "prevents"}]}, {"smiles": "CC(NC(=O)C(NC(=O)OCc1ccccc1)C(C)C)C(=O)NC(CC(=O)O)C(=O)CF", "note": "(stereo not drawn) [Z-VAD, reference compound] (Cbz-Val-Ala-Asp-CH2F; configuration not given here)", "values": [{"measurement": "staurosporine (STS)-induced apoptotic cell death", "setting": "SH-SY5Y cells [2]", "result": "prevents"}]}, {"smiles": "CCC[C@@H]1NC(=O)[C@H](Cc2ccccc2)N(C)C(=O)[C@@H](C)NC(=O)CN(C)C(=O)COc2cccc(c2)[C@@H](CCc2ccc(OC)c(OC)c2)OC(=O)[C@@H]2CCCCN2C(=O)C(=O)C(C)(C)COC(=O)C=CCCN(C)C1=O", "note": "[compound 64]", "values": [{"measurement": "(%) inhibition of MIF nuclease activity", "setting": "MIF", "result": 27.2, "unit": "%"}, {"measurement": "(%) inhibition of cell death", "setting": "[3]", "result": 52.3, "unit": "%"}]}, {"smiles": "COc1ccc(CC[C@H]2OC(=O)[C@@H]3CCCCN3C(=O)C(=O)C(C)(C)COC(=O)C=CCCN(C)C(=O)[C@H](CC3CCCCC3)NC(=O)[C@H](COC(C)(C)C)N(C)C(=O)C(c3ccccc3)NC(=O)CN(C)C(=O)COc3cccc2c3)cc1OC", "note": "(stereo partly shown) [compound 42]", "values": [{"measurement": "(%) inhibition of MIF nuclease activity", "setting": "MIF", "result": 40.8, "unit": "%"}, {"measurement": "(%) inhibition of cell death", "setting": "[3]", "result": 53.2, "unit": "%"}]}, {"smiles": "COc1cc(CC[C@H]2OC(=O)[C@@H]3CCCCN3C(=O)C(=O)C(C)(C)COC(=O)C=CCCN(C)C(=O)[C@@H]3CCCN3C(=O)[C@H](COC(C)(C)C)N(C)C(=O)C(c3ccccc3)NC(=O)[C@H](C)N(C)C(=O)COc3cccc2c3)cc(O)c1OC", "note": "(stereo partly shown) [compound 120]", "values": [{"measurement": "(%) inhibition of MIF nuclease activity", "setting": "MIF", "result": 7.1, "unit": "%"}, {"measurement": "(%) inhibition of cell death", "setting": "[3]", "result": 45.8, "unit": "%"}]}]}
